Data on five compounds can be found in paper PMC10531093, “First-Generation Synthetic Cathinones Produce Arrhythmia in Zebrafish Eleutheroembryos: A New Approach Methodology for New Psychoactive Substances Cardiotoxicity Evaluation” (International Journal of Molecular Sciences, 2023).

Holding throughout (format): in vivo, Danio rerio
Series [1] in a line: Twenty-four-hour acute toxicity test (lethality and abnormalities, 4 to 5 dpf). The arrangement: Embryos with spasms: dose or concentration left out as unconfirmed. Particulars: zebrafish (Danio rerio), in vivo, other: immersion in test solution; 24 h exposure, 4 to 5 dpf, TAPS buffer pH 8.6; read-out: LC50 (CI95). The procedure: (§1) Experiments were conducted to assess lethality after 24 h exposure and quantify drug-induced effects on heart rate after 2 h exposure. Experiments were performed on day 4 of zebrafish development (4 dpf). On the day of the experiment, eleutheroembryos (hereafter embryos) were distributed into a 6-well plate (Thermo-Fisher Scientific, Madrid, Spain) by adding 12 embryos into each well with 5 mL of test solution. Embryos were exposed by immersion at 20 min intervals so that they could be mounted individually by ensuring equal exposure times in all groups. Each drug was tested at different concentrations (ranging from 1 to 1000 µM) in parallel with a control group (Goods buffer TAPS alone). The concentration range used was based on previous experiments with MDMA [58].
(§2) Embryos at 4 dpf were distributed to 6-well plates, and 10 embryos were placed into each well with 5 mL of drug test solution. Plates were incubated at 26 ± 1 °C under a 14:10 light:dark cycle for 24 h. Following 24 h exposure, endpoints used for assessing lethality (coagulation or lack of heartbeat) and morphological/functional abnormalities were recorded for each treatment group. Each drug was tested at different concentrations, and at least three independent experiments were performed.
(§3) Concentration–response curves were derived from 2 h exposures and the 24 h acute toxicity test as effective concentrations 50 (EC50) and lethal concentrations 50 (LC50), respectively. Concentration–response curves were obtained with a sigmoidal concentration–response equation (Hill equation) using the package drc in R software (v.R-3.6.1).

Series [2] concerns zebrafish embryos. The description is as above. The arrangement: Embryos with spasms: dose or concentration left out as unconfirmed. The conditions noted are these: 24 h exposure between 4 and 5 dpf; for Drug-induced abnormalities: all tested concentrations. Here is the method: as §1, §2, §3
In series [3] the test system is zebrafish embryos. As to the kind of experiment: Chamber-specific heart rate (atrium, ventricle) after 2 h exposure, video recording. Particulars: for pEC50: Danio rerio, 4 dpf; for Lowest concentration inducing ventricular bradycardia (LOAEC): significant decrease in ventricular heart rate. Here is the method:
as §1
(§4) To avoid the movement of zebrafish embryos during recording, embryos were anesthetized by adding tricaine to exposure medium (0.08 mg/mL) and mounted in 3% methylcellulose (without tricaine) on double depression slides (Paul Marienfeld GmbH & Co. KG, Lauda-Königshofen, Germany) after drug exposure time. […] The slide was then transferred to an inverted light microscope (Nikon eclipse TS100, at 400×/N.A. 0.55, Nikon Instruments Inc., Amsterdam, The Netherlands) fitted with a high-speed video camera (Exilim, CASIO, Shibuya City, Japan). Sequential images of the heart (240 frames per second (fps)) were obtained with the embryo positioned on its side from the lateral position and with a duration of 10 s. Embryos were recorded one at a time, and all experiments were consistently conducted at the same time of day, controlling room temperature variation throughout video recordings.
To quantify atrial and ventricular heart rates in zebrafish, video recordings were analyzed with ImageJ v.1.53t. A plot of dynamic pixels was obtained by selecting an area of the heart ventricle or atrium with a high deviation of pixel intensity by means of the z-projection function (see Figure S4 for representative selection of heart ventricle and atrium area). The frequency as frames/beat was obtained by analyzing the waveform of dynamic pixels by the Fast Fourier Transform algorithm (FFT) using the “spectrum” function in R. Then, the resulting periodogram provides frequency information in cycles per frame, so to calculate the heart rate frequency (beats/min, bpm), the frequency values were multiplied by the frame rate (240 fps) to convert cycles per frame to cycles per second (Hz) and then multiplied by 60 to convert from Hz to bpm.
as §3
(§5) Statistical analyses were conducted using GraphPad Prism 9 software. For all endpoints reported as means of mean values, data were considered to have a normal distribution according to the central limit theorem (by which means of random samples from any distribution will themselves have a normal distribution). Statistical comparison was performed by two-way ANOVA, followed by Tukey’s test, which was conducted to assess the effect of concentration and chamber (atrium–ventricle) on heart frequency or AI. Fisher’s Exact test was used for the statistical analysis of the proportion of embryos showing AV block and ventricular fibrillation. Students t-test was used to analyze the ventricular beat rate of zebrafish embryos exposed to the Cm.

The subject of series [4] is zebrafish embryos. The experiment in a line: AV block 2:1 and ventricular fibrillation after 2 h exposure. Here is the method:
as §1, §4, §5

The test system of series [5] is zebrafish embryos. As to the kind of experiment: Arrhythmicity index (AI, heart rate variability) after 2 h exposure. Particulars: 500 µM. Here is the method:
as §1
To avoid the movement of zebrafish embryos during recording, embryos were anesthetized by adding tricaine to exposure medium (0.08 mg/mL) and mounted in 3% methylcellulose (without tricaine) on double depression slides (Paul Marienfeld GmbH & Co. KG, Lauda-Königshofen, Germany) after drug exposure time. […] Embryos were recorded one at a time, and all experiments were consistently conducted at the same time of day, controlling room temperature variation throughout video recordings.
Heartbeat variability was determined by analysis of the interbeat intervals (heart period) (see Figure 7), similar to the analysis described in [61]. […]

Series [6] concerns zebrafish embryos. As to the kind of experiment: Tachycardic effects: beat rate after 10 min exposure at 10 µM, and ventricular beat rate at Cm after 2 h.
Setting [7] is: atrial bradycardia, read-out: EC50 (CI95) ATRIUM heart rate.
Where [8] appears, read: ventricular bradycardia, read-out: EC50 (CI95) VENTRICLE heart rate.

pEC50: −log10 of the molar value. Like-named read-outs stand apart in the source and are kept apart here.

Broadly, the LC50 is the concentration that kills 50% of the test population. The pEC50 is −log10 of the EC50, conventionally taken in molar units. With `COC(=O)[C@H]1[C@@H](OC(=O)c2ccccc2)C[C@@H]2CC[C@H]1N2C` [Cocaine, cocaine], the LC50 at 24 h in series [1] came to 173 µM. Further, in the series on zebrafish embryos [2], the Drug-induced abnormalities entry was “No abnormalities observed”. The values for the pEC50 in the series on zebrafish embryos [3] (setting [7]) and with zebrafish embryos [3] (setting [8]) were less than 3.30 and 4.01, respectively. In addition, the “Lowest concentration inducing ventricular bradycardia (LOAEC)” value in the series with zebrafish embryos [3] is 50 µM. Also, the “Lowest concentration provoking AV block” value with zebrafish embryos [4] amounted to 50 µM. Also, the “Embryos with ventricular fibrillation” value in the series on zebrafish embryos [4] (500 µM) is listed as “all embryos”. Moreover, in the series on zebrafish embryos [5], the Ventricle heartbeat result is “no ventricle heartbeat”. Also, in the series with zebrafish embryos [6], the “Beat rate after shorter exposure time” value is listed as “significantly increased beat rates”.
As to `CNC(C)Cc1ccc2c(c1)OCO2` (stereo not shown) [MDMA, 3,4-methylenedioxy-methamphetamine], the LC50 at 24 h in series [1] was 180 µM. In addition, the pEC50 is 3.30 with zebrafish embryos [3] (setting [7]) and 3.38 in the series with zebrafish embryos [3] (setting [8]). Moreover, in the series on zebrafish embryos [3], the “Lowest concentration inducing ventricular bradycardia (LOAEC)” value stood at 250 µM. Also, the “Lowest concentration provoking AV block” value with zebrafish embryos [4] is 500 µM.
Regarding `CCCC(C(=O)c1ccc2c(c1)OCO2)N1CCCC1` (stereo not shown) [MDPV, 3,4-methylenedioxy-pyrovalerone], the LC50 at 24 h in series [1] worked out at 135 µM. Besides, the Embryos with spasms in the series with zebrafish embryos [2] was 21%. For the same compound, in the series on zebrafish embryos [3], the “Fold more potent in inducing bradycardia in the ventricle than in the atria (EC50)” value came out at 3.4 fold and the “Lowest concentration inducing ventricular bradycardia (LOAEC)” value was 20 µM. For the same compound, the pEC50 in the series on zebrafish embryos [3] (setting [7]) was 3.96. In addition, in the series on zebrafish embryos [3] (setting [8]), the pEC50 was 4.49. Also, the “Lowest concentration provoking AV block” value in the series with zebrafish embryos [4] was 20 µM. Moreover, the “Embryos with ventricular fibrillation (AV ratio > 2.5)” value in the series on zebrafish embryos [4] (50 µM) is given as “more than half of the embryos tested”.
Consider `CNC(C)C(=O)c1ccc(C)cc1` (stereo not shown) [Mephedrone, mephedrone], for which, in series [1], the LC50 at 24 h stood at 147 µM. Further, the Drug-induced abnormalities entry with zebrafish embryos [2] is given as “No abnormalities observed”. The values for the pEC50 in the series on zebrafish embryos [3] (setting [7]) and in the series on zebrafish embryos [3] (setting [8]) were 3.22 and 3.39, respectively. Further, in the series on zebrafish embryos [3], the “Lowest concentration inducing ventricular bradycardia (LOAEC)” value is on record as 250 µM. In the series on zebrafish embryos [4], the “Lowest concentration provoking AV block” value is recorded as 500 µM.
Regarding `CNC(C)C(=O)c1ccc2c(c1)OCO2` (stereo not shown) [Methylone, methylone], the LC50 at 24 h in series [1] stood at 127 µM. Besides, the Drug-induced abnormalities entry in the series with zebrafish embryos [2] is reported as “No abnormalities observed”. Also, the pEC50 is less than 3.00 in the series with zebrafish embryos [3] (setting [7]) and 3.28 in the series on zebrafish embryos [3] (setting [8]). For the same compound, the “Lowest concentration inducing ventricular bradycardia (LOAEC)” value with zebrafish embryos [3] was found to be 250 µM. The “Lowest concentration provoking AV block” value in the series on zebrafish embryos [4] stood at 250 µM.
